Read-outs that look alike come from different tables or passages of the source.
Experiments:
SIRT1 = target: T1, SIRT1 (Homo sapiens, UniProt Q96EB6); experiment: SIRT1 enzyme activity test (deacetylase inhibition); assay type: biochemical; conditions: 1 μM SIRT1, 500 μM NAD+, 10 μM substrate peptide
T1 sequence (Q96EB6 1-747): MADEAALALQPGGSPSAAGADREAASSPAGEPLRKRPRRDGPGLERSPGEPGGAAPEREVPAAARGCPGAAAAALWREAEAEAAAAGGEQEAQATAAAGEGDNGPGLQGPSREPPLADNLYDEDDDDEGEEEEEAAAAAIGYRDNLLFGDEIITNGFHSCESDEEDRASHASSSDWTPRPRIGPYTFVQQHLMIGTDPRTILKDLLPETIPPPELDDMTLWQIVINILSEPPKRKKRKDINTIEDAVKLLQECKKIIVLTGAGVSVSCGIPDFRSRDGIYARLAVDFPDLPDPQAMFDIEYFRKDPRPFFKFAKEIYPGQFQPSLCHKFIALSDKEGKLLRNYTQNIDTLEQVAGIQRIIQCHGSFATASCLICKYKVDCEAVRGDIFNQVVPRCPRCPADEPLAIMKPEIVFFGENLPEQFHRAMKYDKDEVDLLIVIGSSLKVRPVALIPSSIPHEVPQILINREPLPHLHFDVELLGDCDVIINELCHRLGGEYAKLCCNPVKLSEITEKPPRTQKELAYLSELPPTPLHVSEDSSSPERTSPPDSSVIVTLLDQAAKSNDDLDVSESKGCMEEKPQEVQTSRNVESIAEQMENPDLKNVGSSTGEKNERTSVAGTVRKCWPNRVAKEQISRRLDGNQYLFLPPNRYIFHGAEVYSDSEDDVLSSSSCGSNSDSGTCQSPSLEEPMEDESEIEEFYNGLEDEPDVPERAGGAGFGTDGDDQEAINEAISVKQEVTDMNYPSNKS

[1] = test system: p53 acetylation levels in SH-SY5Y human neuroblastoma cells; experiment: Effect of compounds on p53 acetylation level in cells (Western blot); assay type: cell-based; conditions: ATRA-induced differentiation, compound 10 μM, 2 h, Figure 5
SIRT5 = target: T2, SIRT5 (Homo sapiens, UniProt Q9NXA8); experiment: Inhibition of SIRT5 (as SIRT1 IC50 method)
T2 sequence (Q9NXA8 37-310): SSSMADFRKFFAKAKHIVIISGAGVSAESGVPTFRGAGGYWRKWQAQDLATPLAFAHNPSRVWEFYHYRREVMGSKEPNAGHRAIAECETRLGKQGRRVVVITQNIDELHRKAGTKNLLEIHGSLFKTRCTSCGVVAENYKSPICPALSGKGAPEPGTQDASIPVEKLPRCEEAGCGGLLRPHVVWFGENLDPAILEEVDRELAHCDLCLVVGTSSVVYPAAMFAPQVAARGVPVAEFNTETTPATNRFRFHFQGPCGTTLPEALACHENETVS

SIRT2 = target: T3, SIRT2 (Homo sapiens, UniProt Q8IXJ6); experiment: Inhibition of SIRT2 (as SIRT1 IC50 method)
T3 sequence (Q8IXJ6 1-389): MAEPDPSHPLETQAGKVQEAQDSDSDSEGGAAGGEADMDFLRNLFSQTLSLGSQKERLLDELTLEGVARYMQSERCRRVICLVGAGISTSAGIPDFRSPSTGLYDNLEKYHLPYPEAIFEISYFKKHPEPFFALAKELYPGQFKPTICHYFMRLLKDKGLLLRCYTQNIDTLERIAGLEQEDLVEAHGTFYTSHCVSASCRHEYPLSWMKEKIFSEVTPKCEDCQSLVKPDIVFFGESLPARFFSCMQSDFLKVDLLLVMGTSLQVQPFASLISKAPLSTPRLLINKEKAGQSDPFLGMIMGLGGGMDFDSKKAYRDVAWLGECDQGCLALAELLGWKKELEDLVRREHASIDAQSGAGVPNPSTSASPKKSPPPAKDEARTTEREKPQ

SIRT3 = target: T4, SIRT3 (Homo sapiens, UniProt Q9NTG7); experiment: Inhibition of SIRT3 (as SIRT1 IC50 method)
T4 sequence (Q9NTG7 1-399): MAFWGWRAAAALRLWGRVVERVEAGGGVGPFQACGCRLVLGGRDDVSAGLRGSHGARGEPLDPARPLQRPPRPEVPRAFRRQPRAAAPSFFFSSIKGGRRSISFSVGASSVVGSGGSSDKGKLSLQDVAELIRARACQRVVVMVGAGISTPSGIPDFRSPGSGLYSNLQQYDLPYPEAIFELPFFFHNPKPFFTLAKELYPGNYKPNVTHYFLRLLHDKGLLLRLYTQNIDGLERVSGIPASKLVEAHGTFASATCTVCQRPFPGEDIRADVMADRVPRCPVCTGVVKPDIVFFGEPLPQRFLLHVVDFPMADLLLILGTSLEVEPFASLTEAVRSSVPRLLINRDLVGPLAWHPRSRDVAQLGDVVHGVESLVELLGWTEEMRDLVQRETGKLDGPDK

[2] = Table 2, 37 °C, 30 min, read-out: IC50
[3] = Table 3, SITR1 [sic], read-out: Inhibition of SIRT1 deacylation (IC50)

IC50 (SIRT1; [2]) | IC50 (SIRT1; [3]) | SMILES | effect on decrease of p53 acetylation level [1] | further results
2.45 ± 0.37 µM | – | COc1cc(C=C2C(=O)OC(C)(c3ccccc3)OC2=O)cc(I)c1O (stereo not drawn) [Compound S2, 5-(4-hydroxy-3-iodo-5-methoxybenzylidene) -2-methyl-2-phenyl-1,3-dioxane-4,6-dione] | – | –
– | 1.2 ± 0.09 µM | O=C1OC(c2ccccc2)OC(=O)C1=Cc1cc(Cl)c(O)c(Cl)c1 (stereo not drawn) [Compound S15, 5-(3,5-dichloro-4-hydroxybenzylidene) -2-phenyl-1,3-dioxane-4,6-dione] | 抑制ATRA诱导的SH-SY5Y细胞分化过程中p53乙酰化水平降低 | –
> 50 µM | – | CC1(c2ccccc2)OC(=O)C(=Cc2ccccc2)C(=O)O1 (stereo not drawn) [Compound S8, 5-benzylidene-2-methyl-2-phenyl-1,3-dioxane-4,6-dione] | – | –
3.41 ± 0.19 µM | – | O=C1OC(c2ccccc2)OC(=O)C1=Cc1ccc(OCc2ccc3c(c2)OCO3)cc1 (stereo not drawn) [Compound S17, 5-[4-(1,3-Benzodioxolane-5-alkylmethoxy)benzylidene] -2-phenyl-1,3-dioxane-4,6-dione] | – | –
– | 1.9 ± 0.53 µM | COc1cc(C=C2C(=O)OC(c3ccccc3)OC2=O)cc(Cl)c1O (stereo not drawn) [Compound S10, 5-(3-chloro-4-hydroxy-5-methoxybenzylidene) -2-phenyl-1,3-dioxane-4,6-dione] | 抑制ATRA诱导的SH-SY5Y细胞分化过程中p53乙酰化水平降低 | IC50 (SIRT5): 32.5 ± 1.15 µM; IC50 (SIRT2): 64.4 ± 7.09 µM; IC50 (SIRT3): 204 ± 16.2 µM
4.51 ± 1.17 µM | – | O=C(COc1ccc(C=C2C(=O)OC(c3ccccc3)OC2=O)cc1)Nc1ccccc1 (stereo not drawn) [Compound S21, 2-{4-[(4,6-Dioxo-2-phenyl-1,3-dioxane-5-ylbenzylidene)methyl]phenoxy} -N-phenylacetamide] | – | –
– | 0.89 ± 0.01 µM | COc1cc(C=C2C(=O)OC(c3ccccc3)OC2=O)cc(I)c1O (stereo not drawn) [Compound S6, 5-(4-hydroxy-3-iodo-5-methoxybenzylidene) -2-phenyl-1,3-dioxane-4,6-dione] | 抑制ATRA诱导的SH-SY5Y细胞分化过程中p53乙酰化水平降低 | –
4.89 ± 0.35 µM | – | COc1cc(OC)c(C=C2C(=O)OC(c3ccccc3)OC2=O)cc1Br (stereo not drawn) [Compound S22, 5-(5-bromo-2,4-dimethoxybenzylidene) -2-phenyl-1,3-dioxane-4,6-dione] | – | –
14 ± 2.01 µM | – | CC(C)Oc1ccccc1C=C1C(=O)OC(c2ccccc2)OC1=O (stereo not drawn) [Compound S14, 5-(2-isopropoxybenzylidene) -2-phenyl-1,3-dioxane-4,6-dione] | – | –
